Results taken from PMC6770857, “Unraveling Binding Mechanism of Alzheimer’s Drug Rivastigmine Tartrate with Human Transferrin: Molecular Docking and Multi-Spectroscopic Approach towards Neurodegenerative Diseases” (Biomolecules, 2019).
Counter-ions that a name gives are not always drawn.

Target: T1, human transferrin (hTf) (Homo sapiens, UniProt P02787)
T1 construct: gene TF
Assay: intrinsic fluorescence quenching, modified Stern-Volmer
Type: binding
Settings: pH 7.4, 50 mM sodium phosphate, 301 K, 4 uM hTf, excitation 280 nm, n = 0.99; double-log
Excerpt: intrinsic fluorescence quenching, modified Stern-Volmer on human transferrin (hTf)

T1 sequence (P02787 20-698): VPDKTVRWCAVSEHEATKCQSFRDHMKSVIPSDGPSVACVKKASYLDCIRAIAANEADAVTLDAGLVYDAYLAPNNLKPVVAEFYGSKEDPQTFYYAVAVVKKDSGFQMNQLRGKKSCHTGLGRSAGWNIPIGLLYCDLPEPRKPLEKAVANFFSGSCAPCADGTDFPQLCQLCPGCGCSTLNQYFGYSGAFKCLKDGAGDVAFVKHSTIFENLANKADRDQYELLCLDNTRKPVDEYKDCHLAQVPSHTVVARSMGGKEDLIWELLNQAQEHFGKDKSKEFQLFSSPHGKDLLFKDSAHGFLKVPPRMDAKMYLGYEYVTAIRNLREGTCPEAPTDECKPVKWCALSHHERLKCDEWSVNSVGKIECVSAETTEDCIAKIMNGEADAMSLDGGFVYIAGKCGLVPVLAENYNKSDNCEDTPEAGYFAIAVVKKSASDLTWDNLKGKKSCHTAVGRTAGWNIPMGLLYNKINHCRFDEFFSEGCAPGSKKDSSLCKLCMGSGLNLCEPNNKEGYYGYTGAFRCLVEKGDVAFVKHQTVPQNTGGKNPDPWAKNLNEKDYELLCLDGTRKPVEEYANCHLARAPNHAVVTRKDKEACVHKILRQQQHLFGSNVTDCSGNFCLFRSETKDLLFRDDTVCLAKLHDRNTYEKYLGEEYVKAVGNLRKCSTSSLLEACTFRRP

CCN(C)C(=O)Oc1cccc([C@H](C)N(C)C)c1 [Rivastigmine tartrate]
K (10^4 M^-1): 5.3 10^4 M^-1
